Data on 11 molecules can be found in PubChem BioAssay (NCI).

Some test systems named below: CAKI-1 renal; COLO 205 colon; DU-145 prostate; IGROV1 ovarian; MDA-MB-435; NCI/ADR-RES ovarian; SK-MEL-28 melanoma; SR leukemia; MOLT-4 leukemia; SNB-75 CNS.
Common to all, as to assay: NCI-60 cell line screen, 48 h

Molecules are shown by their SMILES.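 Method: 48-hour compound exposure of cells in 96-well plates, five concentrations, linear interpolation of endpoints. Here, GI50 denotes the concentration required for 50% inhibition of growth. The concentration for full growth arrest is given as TGI.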

In the case of `COc1cc2c(/C=C3/C(=O)Nc4c3ccc3ccccc43)c(Cl)[nH]c2cc1C`, the GI50 with CAKI-1 renal was 0.00894 µM; with COLO 205 colon, 0.0715 µM; in the experiment on DU-145 prostate, 0.165 µM; in the experiment on IGROV1 ovarian it was 0.0125 µM; in the experiment with MDA-MB-435, 0.00618 µM; in the experiment with NCI/ADR-RES ovarian, 0.0139 µM. Moreover, the GI50 is 17.3 µM in the experiment on SK-MEL-28 melanoma and below 0.005 µM with SR leukemia. The TGI is above 15.7 µM in the experiment with DU-145 prostate; 0.0238 µM in the experiment with MDA-MB-435; 1.09 µM in the experiment on NCI/ADR-RES ovarian; above 50 µM in the experiment with SK-MEL-28 melanoma; below 0.005 µM in the experiment on SR leukemia.

Take `COc1ccc(/C=C/C(=O)c2ccc(NC(=O)CSc3nnc(-c4cc(OC)c(OC)c(OC)c4)o3)cc2)cc1`: the GI50 was 1.94 µM in the experiment on COLO 205 colon; 1.75 µM with DU-145 prostate; 1.7 µM in the experiment on MDA-MB-435; 2.05 µM in the experiment on MOLT-4 leukemia; 2.42 µM with NCI/ADR-RES ovarian; 1.74 µM in the experiment with SK-MEL-28 melanoma. For the same molecule, the values for the GI50 in the experiment with SNB-75 CNS and with SR leukemia were 1.47 µM and 1.86 µM, respectively. Besides, the TGI with COLO 205 colon worked out at 3.84 µM; in the experiment with DU-145 prostate, 3.21 µM; in the experiment with MDA-MB-435, 3.4 µM; in the experiment with MOLT-4 leukemia, 5.27 µM; in the experiment on NCI/ADR-RES ovarian, 7.03 µM; in the experiment on SK-MEL-28 melanoma it was 3.4 µM. Further, the results for the TGI with SNB-75 CNS and in the experiment with SR leukemia were 3.15 µM and 4.01 µM, respectively.

With `O=c1[nH]c(C2CCCCC2)nc2cc(Cl)ccc12`, the TGI in the experiment on CAKI-1 renal, in the experiment with COLO 205 colon, with IGROV1 ovarian, with MOLT-4 leukemia, in the experiment with SK-MEL-28 melanoma and in the experiment with SNB-75 CNS was above 100 µM in each case. In the experiment with SR leukemia, this molecule came in with a TGI above 100 µM.

As for `CC(=O)O[C@@H]1CC(=O)O[C@@H]2C[C@@H](CC/C(Cl)=C/C/C=C\1C)O[C@@H]2CO`, the GI50 is above 25 µM in the experiment on CAKI-1 renal; above 25 µM with COLO 205 colon; above 22.1 µM with DU-145 prostate; above 25 µM with IGROV1 ovarian; above 25 µM in the experiment on MOLT-4 leukemia; above 25 µM with NCI/ADR-RES ovarian. In addition, the GI50 in the experiment on SK-MEL-28 melanoma, in the experiment with SNB-75 CNS and with SR leukemia was above 25 µM throughout. The TGI in the experiment on CAKI-1 renal, with COLO 205 colon, in the experiment with DU-145 prostate, with IGROV1 ovarian, in the experiment with MOLT-4 leukemia and in the experiment with NCI/ADR-RES ovarian was above 25 µM in each case. Moreover, the TGI in the experiment on SK-MEL-28 melanoma, in the experiment with SNB-75 CNS and in the experiment on SR leukemia was above 25 µM in each case.

As to `CCOC(=O)C1=C(N)Oc2cc(OC)ccc2C1c1ccc(F)c(F)c1` (stereo unspecified), the GI50 with COLO 205 colon is 1.05 µM; with DU-145 prostate, 2.56 µM; with IGROV1 ovarian it was 2.72 µM; in the experiment with MDA-MB-435, 0.229 µM; in the experiment on MOLT-4 leukemia, 1.58 µM; with NCI/ADR-RES ovarian, 0.703 µM. Besides, the figures for the GI50 in the experiment with SK-MEL-28 melanoma, in the experiment with SNB-75 CNS and with SR leukemia were 6.44 µM, 1.64 µM and 0.533 µM, respectively. In addition, the TGI is 8.97 µM in the experiment on COLO 205 colon; 11.4 µM in the experiment on DU-145 prostate; 20.1 µM with IGROV1 ovarian; 0.844 µM with MDA-MB-435; 22.3 µM with MOLT-4 leukemia; 17 µM in the experiment on NCI/ADR-RES ovarian. For the same molecule, the TGI came to 21.9 µM in the experiment with SK-MEL-28 melanoma, 11.1 µM in the experiment with SNB-75 CNS and 16.7 µM in the experiment on SR leukemia.

As for `O=C(CCc1cc(-c2ccco2)n(-c2ccc([N+](=O)[O-])cc2[N+](=O)[O-])n1)Nc1ccccc1`, the TGI in the experiment on CAKI-1 renal, in the experiment on COLO 205 colon, with IGROV1 ovarian, with MOLT-4 leukemia, with SK-MEL-28 melanoma and in the experiment with SNB-75 CNS was above 100 µM throughout. In the experiment on SR leukemia, this molecule gave a TGI above 100 µM.

Consider `NNc1nc(-c2ccccn2)nc2sc3c(c12)CCCCCC3`, for which the GI50 in the experiment with CAKI-1 renal was 0.575 µM; in the experiment on COLO 205 colon, 5.07 µM; in the experiment with DU-145 prostate, 9.48 µM; in the experiment with IGROV1 ovarian, 4.21 µM; with MDA-MB-435, 5.17 µM; in the experiment with MOLT-4 leukemia it was 3.67 µM. Besides, the GI50 was 0.453 µM with NCI/ADR-RES ovarian, 14.9 µM in the experiment with SK-MEL-28 melanoma and 12.6 µM in the experiment on SNB-75 CNS. Further, the TGI in the experiment on CAKI-1 renal is 25.6 µM; in the experiment on COLO 205 colon it was above 100 µM; with DU-145 prostate it was above 100 µM; in the experiment on IGROV1 ovarian it was above 100 µM; in the experiment on MDA-MB-435, above 100 µM; with MOLT-4 leukemia, 22.7 µM. The TGI with NCI/ADR-RES ovarian was 52.3 µM; in the experiment with SK-MEL-28 melanoma it was above 100 µM; in the experiment with SNB-75 CNS, 95.9 µM.

`FC(F)(F)c1ccccc1C=NC12CC3CC(CC(C3)C1)C2`: the TGI with CAKI-1 renal, in the experiment on COLO 205 colon, in the experiment with IGROV1 ovarian, with MOLT-4 leukemia, in the experiment with SK-MEL-28 melanoma and with SNB-75 CNS was above 100 µM in each case. The same molecule yielded a TGI with SR leukemia above 100 µM.

Take `[O-][N+]1=C(c2ccccc2)COc2ccccc21`: the TGI in the experiment on CAKI-1 renal, in the experiment on COLO 205 colon, in the experiment on IGROV1 ovarian, with MOLT-4 leukemia, in the experiment on SK-MEL-28 melanoma and in the experiment with SNB-75 CNS was above 100 µM throughout. Besides, in the experiment on SR leukemia, the TGI was above 100 µM.

For `C=C1CCC2C(C)(CO)C(O)CCC2(C)C1CC(O)C1=CCOC1=O` (stereo unspecified), the TGI in the experiment with CAKI-1 renal, in the experiment with COLO 205 colon, with IGROV1 ovarian, with MOLT-4 leukemia, in the experiment with SK-MEL-28 melanoma and with SNB-75 CNS was above 100 µM in each case. Further, the TGI in the experiment on SR leukemia worked out at 65.9 µM.

On to `O=CN/C=C/c1ccccc1O`, for which the TGI in the experiment with CAKI-1 renal, with COLO 205 colon, with DU-145 prostate, in the experiment with IGROV1 ovarian, with MOLT-4 leukemia and in the experiment with SK-MEL-28 melanoma was above 100 µM in each case. Moreover, the TGI with SNB-75 CNS and in the experiment with SR leukemia was above 100 µM throughout.
